Assay results as given in patent publication US20160095843A1, “PYRAZOLOPYRROLIDINE DERIVATIVES AND THEIR USE IN THE TREATMENT OF DISEASE” (NOVARTIS AG, priority 2013, published 2016).

What was measured:
K-562 cells = assay: Cell growth inhibition assay (CellTiter-Glo), K-562; type: cell-based, human; conditions: Homo sapiens, K562
Outline: (§1)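 Leukemia lines grown in their own media were exposed for 4 days at 37° C. to 3-fold serial dilutions from 10 μM (0.1% DMSO). Viability by CellTiter-Glo ATP luminescence, corrected for background and day-0 plate; IC50 and TGI from four-parameter fit against vehicle (100%) and medium (−100%).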

MV-4-11 cells = assay: Cell growth inhibition assay (CellTiter-Glo), MV-4-11; type: cell-based; conditions: Homo sapiens, MV4-11
Outline: as §1

THP-1 cells = assay: Cell growth inhibition assay (CellTiter-Glo), THP-1; type: cell-based; conditions: Homo sapiens
Outline: as §1

SMILES	GI50 (K-562 cells)	GI50 (MV-4-11 cells)	GI50 (THP-1 cells)
Cc1nn(C2CNC2)c2c1C(c1ccc(Cl)cc1)N(c1cc(C)c3nnc(C)n3c1)C2=O (stereo not drawn) [Example 151, 1-(azetidin-3-yl)-4-(4-chlorophenyl)-5-(3,8-dimethyl-[1,2,4]triazolo[4,3-a]pyridin-6-yl)-3-methyl-4,5-dihydropyrrolo[3,4-c]pyrazol-6(1H)-one]	2610 nM	226 nM	778 nM
Cc1cc(N2C(=O)c3nn(C4CNC4)c(C)c3C2c2ccc(Cl)cc2)cn2c(C)nnc12 (stereo not drawn) [Example 152, 2-(azetidin-3-yl)-4-(4-chlorophenyl)-5-(3,8-dimethyl-[1,2,4]triazolo[4,3-a]pyridin-6-yl)-3-methyl-4,5-dihydropyrrolo[3,4-c]pyrazol-6(2H)-one]	4330 nM	438 nM	2600 nM
CC(=O)N1CC(n2nc(C)c3c2C(=O)N(c2cc(C)c(=O)n(C)c2)C3c2ccc(Cl)cc2)C1 (stereo not drawn) [Example 153, 1-(1-acetylazetidin-3-yl)-4-(4-chlorophenyl)-5-(1,5-dimethyl-6-oxo-1,6-dihydropyridin-3-yl)-3-methyl-4,5-dihydropyrrolo[3,4-c]pyrazol-6(1H)-one]	925 nM	115 nM	229 nM
CC(=O)N1CC(n2nc(C)c3c2C(=O)N(c2cc(C)c4nnc(C)n4c2)C3c2ccc(Cl)cc2)C1 (stereo not drawn) [Example 154, 1-(1-acetylazetidin-3-yl)-4-(4-chlorophenyl)-5-(3,8-dimethyl-[1,2,4]triazolo[4,3-a]pyridin-6-yl)-3-methyl-4,5-dihydropyrrolo[3,4-c]pyrazol-6(1H)-one]	956 nM	59 nM	243 nM
CCOC(=O)N1CC(n2nc(C)c3c2C(=O)N(c2cc(C)c(=O)n(C)c2)C3c2ccc(Cl)cc2)C1 (stereo not drawn) [Example 155, Ethyl 3-(4-(4-chlorophenyl)-5-(1,5-dimethyl-6-oxo-1,6-dihydropyridin-3-yl)-3-methyl-6-oxo-5,6-dihydropyrrolo[3,4-c]pyrazol-1(4H)-yl)azetidine-1-carboxylate]	638 nM	73.4 nM	120 nM
Cc1nn(C2CN(C)C2)c2c1C(c1ccc(Cl)cc1)N(c1cc(C)c3nnc(C)n3c1)C2=O (stereo not drawn) [Example 157, 4-(4-chlorophenyl)-5-(3,8-dimethyl-[1,2,4]triazolo[4,3-a]pyridin-6-yl)-3-methyl-1-(1-methylazetidin-3-yl)-4,5-dihydropyrrolo[3,4-c]pyrazol-6(1H)-one]	534 nM	50 nM	158 nM
Cc1cc(N2C(=O)c3nn(C4CN(C)C4)c(C)c3C2c2ccc(Cl)cc2)cn2c(C)nnc12 (stereo not drawn) [Example 158, 4-(4-chlorophenyl)-5-(3,8-dimethyl-[1,2,4]triazolo[4,3-a]pyridin-6-yl)-3-methyl-2-(1-methylazetidin-3-yl)-4,5-dihydropyrrolo-[3,4-c]pyrazol-6(2H)-one]	484 nM	26.6 nM	142 nM
Cc1nn(C2CC2)c2c1C(c1ccc(Cl)cc1)N(c1cn(C)c(=O)c3[nH]ccc13)C2=O (stereo not drawn) [Example 160, 4-(4-(4-chlorophenyl)-1-cyclopropyl-3-methyl-6-oxopyrrolo-[3,4-c]pyrazol-5(1H,4H,6H)-yl)-6-methyl-1H-pyrrolo[2,3-c]pyridin-7(6H)-one]	426 nM	66.2 nM	56.1 nM

Compounds with a lower GI50 (K-562 cells), results first:

GI50 (K-562 cells)	GI50 (MV-4-11 cells)	GI50 (THP-1 cells)	SMILES
374 nM	35.6 nM	69.6 nM	CCOC(=O)N1CC(n2nc(C)c3c2C(=O)N(c2cc(C)c4nnc(C)n4c2)C3c2ccc(Cl)cc2)C1 (stereo not drawn) [Example 156, Ethyl 3-(4-(4-chlorophenyl)-5-(3,8-dimethyl-[1,2,4]triazolo[4,3-a]pyridin-6-yl)-3-methyl-6-oxo-5,6-dihydropyrrolo[3,4-c]pyrazol-1(4H)-yl)azetidine-1-carboxylate]
352 nM	66.1 nM	78.5 nM	CNc1cc(N2C(=O)c3c(c(C)nn3C3CC3)[C@H]2c2ccc(Cl)cc2)nn2c(C)nnc12 [Example 161, (R)-4-(4-chlorophenyl)-1-cyclopropyl-3-methyl-5-(3-methyl-8-(methylamino)-[1,2,4]triazolo[4,3-b]pyridazin-6-yl)-4,5-dihydropyrrolo-[3,4-c]pyrazol-6(1H)-one]
294 nM	27.6 nM	59.6 nM	Cc1nn(C[C@H](O)C(F)(F)F)c2c1[C@@H](c1ccc(Cl)cc1)N(c1cc(C)c3nnc(C)n3c1)C2=O [Example 167, (R)-4-(4-chlorophenyl)-5-(3,8-dimethyl-[1,2,4]triazolo[4,3-a]pyridin-6-yl)-3-methyl-1-((S)-3,3,3-trifluoro-2-hydroxypropyl)-4,5-dihydropyrrolo-[3,4-c]pyrazol-6(1H)-one]
244 nM	41.8 nM	54.6 nM	COCc1nn(C2CC2)c2c1[C@@H](c1ccc(Cl)cc1)N(c1cc(C)c(=O)n(C)c1)C2=O [Example 162, (R)-4-(4-chlorophenyl)-1-cyclopropyl-5-(1,5-dimethyl-6-oxo-1,6-dihydropyridin-3-yl)-3-(methoxymethyl)-4,5-dihydropyrrolo[3,4-c]pyrazol-6(1H)-one]
190 nM	21.7 nM	38.3 nM	Cc1n[nH]c2c1[C@@H](c1ccc(Cl)cc1)N(c1cc(C)c3nnc(C)n3c1)C2=O [Example 165, (R)-4-(4-chlorophenyl)-5-(3,8-dimethyl-[1,2,4]triazolo[4,3-a]pyridin-6-yl)-3-methyl-4,5-dihydropyrrolo[3,4-c]pyrazol-6(1H)-one]
116 nM	40 nM	36.9 nM	Cc1cc(N2C(=O)c3c(c(CF)nn3C3CC3)C2c2ccc(Cl)cc2)cn2c(C)nnc12 (stereo not drawn) [Example 159, 4-(4-chlorophenyl)-1-cyclopropyl-5-(3,8-dimethyl-[1,2,4]triazolo[4,3-a]pyridin-6-yl)-3-(fluoromethyl)-4,5-dihydropyrrolo[3,4-c]pyrazol-6(1H)-one]
105 nM	24.1 nM	35.5 nM	Cc1nn(C(C)C)c2c1C(c1ccc(Cl)cc1F)N(c1cc(C)c3nnc(C)n3c1)C2=O (stereo not drawn) [Example 168, 4-(4-chloro-2-fluorophenyl)-5-(3,8-dimethyl-[1,2,4]triazolo[4,3-a]pyridin-6-yl)-1-isopropyl-3-methyl-4,5-dihydropyrrolo[3,4-c]pyrazol-6(1H)-one]
98.2 nM	7.69 nM	9.6 nM	Cc1cc(N2C(=O)c3c(c(C4CC4)nn3C)[C@H]2c2ccc(Cl)cc2)cn2c(C)nnc12 [Example 164, (R)-4-(4-chlorophenyl)-3-cyclopropyl-5-(3,8-dimethyl-[1,2,4]triazolo[4,3-a]pyridin-6-yl)-1-methyl-4,5-dihydropyrrolo-[3,4-c]pyrazol-6(1H)-one]
94.6 nM	9.38 nM	17.1 nM	Cc1cc(N2C(=O)c3c(c(CO)nn3C3CC3)[C@H]2c2ccc(Cl)cc2)cn2c(C)nnc12 [Example 166, (R)-4-(4-chlorophenyl)-1-cyclopropyl-5-(3,8-dimethyl-[1,2,4]triazolo[4,3-a]pyridin-6-yl)-3-(hydroxymethyl)-4,5-dihydropyrrolo-[3,4-c]pyrazol-6(1H)-one]
79.8 nM	10.3 nM	17.5 nM	COCc1nn(C2CC2)c2c1[C@@H](c1ccc(Cl)cc1)N(c1cc(C)c3nnc(C)n3c1)C2=O [Example 163, (R)-4-(4-chlorophenyl)-1-cyclopropyl-5-(3,8-dimethyl-[1,2,4]triazolo[4,3-a]pyridin-6-yl)-3-(methoxymethyl)-4,5-dihydropyrrolo-[3,4-c]pyrazol-6(1H)-one]
